The values below come from patent US20240308968A1, “FUNGICIDAL SUBSTITUTED HETEROCYCLES” (FMC Corporation, priority 2021, published 2024).

What all share (format): in vivo
Assay [1] relates to Botrytis cinerea. The assay can be described thus: Test E: preventive spray on tomato seedlings, tomato Botrytis disease rating. As to conditions: 100 = 100% disease control, 0 = no control; for pest or weed control at 50 ppm / pest or weed control at 250 ppm: Botrytis cinerea, 120 h; for pest or weed control at 50 ppm / Test E disease control rating: 50 ppm. The source says:
(§1) General protocol for preparing test suspensions for Tests A-F: the test compounds were first dissolved in acetone in an amount equal to 3% of the final volume and then suspended at the desired concentration (in ppm) in acetone and purified water (50/50 mix by volume) containing 50 to 250 ppm of the surfactant PEG400 (polyhydric alcohol esters). The resulting test suspensions were then used in Tests A-F.
The test suspension was sprayed to the point of run-off on tomato seedlings. The following day the seedlings were inoculated with a spore suspension of Botrytis cinerea (the causal agent of tomato Botrytis) and incubated in a saturated atmosphere at 20° C. for 48 h, and then moved to a growth chamber at 24° C. for 3 days, after which time visual disease ratings were made.
(§2) The test suspension was sprayed to the point of run-off on tomato seedlings. The following day the seedlings were inoculated with a spore suspension of Alternaria solani (the causal agent of tomato early blight) and incubated in a saturated atmosphere at 27° C. for 48 h, and then moved to a growth chamber at 20° C. for 3 days, after which time visual disease ratings were made. A rating of 100 indicates 100% disease control and a rating of 0 indicates no disease control (relative to the controls). A dash (-) indicates the compound was not tested.

The subject of assay [2] is Phakopsora pachyrhizi. The assay can be described thus: Test D: preventive spray on soybean seedlings, Asian soybean rust disease rating. As to conditions: 100 = 100% disease control, 0 = no control; for pest or weed control at 50 ppm / pest or weed control at 250 ppm: Phakopsora pachyrhizi, 216 h; for pest or weed control at 50 ppm / Test D disease control rating: 50 ppm.
Excerpt: as §1
The test solution was sprayed to the point of run-off on soybean seedlings. The following day the seedlings were inoculated with a spore suspension of Phakopsora pachyrhizi (the causal agent of Asian soybean rust) and incubated in a saturated atmosphere at 22° C. for 24 h and then moved to a growth chamber at 22° C. for 8 days, after which time visual disease ratings were made.
as §2

For assay [3], the system named is Zymoseptoria tritici. The assay can be described thus: Test A: preventive spray on wheat seedlings, wheat leaf blotch disease rating. The following applies: 100 = 100% disease control, 0 = no control; for pest or weed control at 50 ppm / pest or weed control at 250 ppm: Zymoseptoria tritici, 456 h; for pest or weed control at 50 ppm / Test A disease control rating: 50 ppm.
Excerpt: as §1
The test solution was sprayed to the point of run-off on wheat seedlings. The following day the seedlings were inoculated with a spore suspension of Zymoseptoria tritici (the causal agent of wheat leaf blotch) and incubated in a saturated atmosphere at 24° C. for 48 h, and then moved to a growth chamber at 20° C. for 17 days, after which time disease ratings were made. […]

Assay [4] concerns Alternaria solani. The assay can be described thus: Test F: preventive spray on tomato seedlings, tomato early blight disease rating. As to conditions: 100 = 100% disease control, 0 = no control; for pest or weed control at 50 ppm / pest or weed control at 250 ppm: Alternaria solani, 120 h; for pest or weed control at 50 ppm / Test F disease control rating: 50 ppm.
Excerpt: as §1, §2

Assay [5] deals with Puccinia recondita f. sp. Tritici. Put plainly: Test B: preventive spray on wheat seedlings, wheat leaf rust disease rating. As to conditions: 100 = 100% disease control, 0 = no control; for pest or weed control at 50 ppm / pest or weed control at 250 ppm: Puccinia recondita, 192 h; for pest or weed control at 50 ppm / Test B disease control rating: 50 ppm.
Excerpt: as §1
The test solution was sprayed to the point of run-off on wheat seedlings. The following day the seedlings were inoculated with a spore suspension of Puccinia recondita f. sp. Tritici (the causal agent of wheat leaf rust) and incubated in a saturated atmosphere at 20° C. for 24 h, and then moved to a growth chamber at 20° C. for 7 days, after which time disease ratings were made.
as §2

The test system of assay [6] is Blumeria graminis f. sp. Tritici. Put plainly: Test C: preventive spray on wheat seedlings, wheat powdery mildew disease rating. The following applies: 100 = 100% disease control, 0 = no control; for pest or weed control at 50 ppm / pest or weed control at 250 ppm: Blumeria graminis, 192 h; for pest or weed control at 50 ppm / Test C disease control rating: 50 ppm.
Excerpt: as §1
The test suspension was sprayed to the point of run-off on wheat seedlings. The following day the seedlings were inoculated with a spore dust of Blumeria graminis f. sp. Tritici, (also known as Erysiphe graminis f. sp. Tritici, the causal agent of wheat powdery mildew) and incubated in a growth chamber at 20° C. for 8 days, after which time visual disease ratings were made.
as §2

The term pest or weed control denotes the degree to which the test organism was suppressed or injured, in per cent. `COc1ccc(Cl)c(-c2nn(C)c(=O)c(C)c2-c2cnccc2C)c1` [Compound 21, 6-(2-chloro-5-methoxyphenyl)-2,4-dimethyl-5-(4-methyl-3-pyridinyl)-3(2H)-pyridazinone]: the pest or weed control at 50 ppm in assay [1] amounted to 96%; in assay [2], 25%; in assay [3] it was 54%; in assay [4], 0%; in assay [5], 68%; in assay [6], 86%.

On to `Cc1c(-c2ccc(F)cc2Cl)c(-c2nn(C)cc2Cl)nn(C)c1=O` [Compound 22], for which the “Test E disease control rating” value in assay [1] is 94%. Moreover, the “Test D disease control rating” value in assay [2] is recorded as 53%. Moreover, in assay [3], the “Test A disease control rating” value is listed as 94%. Moreover, the “Test F disease control rating” value in assay [4] is reported as 0%. In assay [5], the “Test B disease control rating” value is 93%. Moreover, in assay [6], the “Test C disease control rating” value stood at 98%.

`COc1cc(OC)cc(-n2nc(CO)c(=O)c(C)c2-c2ccc(F)cc2F)c1` [Compound 23, 6-(2,4-difluorophenyl)-1-(3,5-dimethoxyphenyl)-3-(hydroxymethyl)-5-methyl-4(1H)-pyridazinone]: the pest or weed control at 50 ppm in assay [1] turned out to be 46%; in assay [2], 43%; in assay [3], 3%; in assay [4], 53%; in assay [5], 68%; in assay [6], 0%.

In the case of `COC(=O)c1nn(-c2cc(OC)cc(OC)c2)c(-c2ccc(F)cc2F)c(C)c1=O` [Compound 24], the “Test E disease control rating” value in assay [1] is 0%. Besides, the “Test D disease control rating” value in assay [2] stood at 0%. Further, the “Test A disease control rating” value in assay [3] was 8%. In assay [4], the “Test F disease control rating” value was 0%. In addition, in assay [5], the “Test B disease control rating” value is 0%. Besides, in assay [6], the “Test C disease control rating” value is 0%.

With `COc1cc(OC)cc(-n2nc(CCl)c(=O)c(C)c2-c2ccc(F)cc2F)c1` [Compound 25], the “Test E disease control rating” value in assay [1] is given as 34%. Further, the “Test D disease control rating” value in assay [2] was found to be 75%. The “Test A disease control rating” value in assay [3] is on record as 18%. Moreover, the “Test F disease control rating” value in assay [4] is given as 0%. In assay [5], the “Test B disease control rating” value amounted to 0%. Moreover, in assay [6], the “Test C disease control rating” value is recorded as 43%.

Regarding `COc1cc(OC)cc(-n2nc(CF)c(=O)c(C)c2-c2ccc(F)cc2F)c1` [Compound 26], the “Test E disease control rating” value in assay [1] came to 98%. Moreover, the “Test D disease control rating” value in assay [2] is recorded as 99%. Further, the “Test A disease control rating” value in assay [3] is on record as 100%. Besides, the “Test F disease control rating” value in assay [4] is given as 99%. The “Test B disease control rating” value in assay [5] was 100%. Besides, the “Test C disease control rating” value in assay [6] turned out to be 98%.

As for `CCOC(=O)c1nn(-c2cc(OC)cc(OC)c2)c(-c2ccc(F)cc2F)c(C)c1=O` [Compound 28, ethyl 6-(2,4-difluorophenyl)-1-(3,5-dimethoxyphenyl)-1,4-dihydro-5-methyl-4-oxo-3-pyridazinecarboxylate], the pest or weed control at 250 ppm in assay [1] is 31%; in assay [2] it was 0%; in assay [3] it was 0%; in assay [4] it was 0%; in assay [5], 83%; in assay [6], 43%.

With `COc1cc(OC)c(Cl)c(-n2nc(CO)c(=O)c(C)c2-c2ccc(F)cc2F)c1` [Compound 30, 1-(2-chloro-3,5-dimethoxyphenyl)-6-(2,4-difluorophenyl)-3-(hydroxymethyl)-5-methyl-4(1H)-pyridazinone], the pest or weed control at 50 ppm amounted to 94% in assay [1]; 92% in assay [2]; 63% in assay [3]; 99% in assay [4]; 100% in assay [5]; 98% in assay [6].

Take `COc1cc(OC)cc(-n2nc(CC#N)c(=O)c(C)c2-c2ccc(F)cc2F)c1` [Compound 31]: the “Test E disease control rating” value in assay [1] is given as 9%. Further, in assay [2], the “Test D disease control rating” value was determined as 0%. The “Test A disease control rating” value in assay [3] was determined as 61%. Further, the “Test F disease control rating” value in assay [4] was 0%. For the same compound, the “Test B disease control rating” value in assay [5] came to 0%. The “Test C disease control rating” value in assay [6] is 0%.

For `COc1cc(-n2nc(CO)c(=O)c(C)c2-c2ccc(F)cc2F)cc(OC)c1Cl` [Compound 32, 1-(4-chloro-3,5-dimethoxyphenyl)-6-(2,4-difluorophenyl)-3-(hydroxymethyl)-5-methyl-4(1H)-pyridazinone], the pest or weed control at 50 ppm in assay [1] was 0%; in assay [2] it was 25%; in assay [3], 0%; in assay [4] it was 0%; in assay [5], 0%; in assay [6] it was 0%.

With `COc1cc(OC)c(Cl)c(-n2nc(C)c(=O)c(C)c2-c2ccc(F)cc2F)c1` [Compound 33, 1-(2-chloro-3,5-dimethoxyphenyl)-6-(2,4-difluorophenyl)-3,5-dimethyl-4(1H)-pyridazinone], the pest or weed control at 50 ppm in assay [1] stood at 98%; in assay [2], 100%; in assay [3], 100%; in assay [4] it was 94%; in assay [5], 100%; in assay [6] it was 100%.

For the compound `COc1cc(OC)cc(-n2c(-c3ccc(F)cc3Cl)cc(=O)n(C)c2=O)c1` [Compound 34, 6-(2-chloro-4-fluorophenyl)-1-(3,5-dimethoxyphenyl)-3-methyl-2,4(1H,3H)-pyrimidinedione], the pest or weed control at 250 ppm was 63% in assay [1]; 64% in assay [2]; 25% in assay [3]; 0% in assay [4]; 86% in assay [5]; 0% in assay [6].

Consider `COc1cc(OC)c(Cl)c(-n2c(-c3ccc(F)cc3Cl)c(Cl)c(=O)n(C)c2=O)c1` [Compound 35, 5-chloro-1-(2-chloro-3,5-dimethoxyphenyl)-6-(2-chloro-4-fluorophenyl)-3-methyl-2,4(1H,3H)-pyrimidinedione], for which the pest or weed control at 50 ppm in assay [1] is 94%; in assay [2], 91%; in assay [3], 100%; in assay [4] it was 0%; in assay [5], 100%; in assay [6], 98%.

Take `COc1cc(OC)c(Cl)c(-n2c(-c3ccc(F)cc3Cl)cc(=O)n(C)c2=O)c1` [Compound 36, 1-(2-chloro-3,5-dimethoxyphenyl)-6-(2-chloro-4-fluorophenyl)-3-methyl-2,4(1H,3H)-pyrimidinedione]: the pest or weed control at 50 ppm in assay [1] amounted to 88%; in assay [2], 89%; in assay [3] it was 95%; in assay [4], 0%; in assay [5], 100%; in assay [6] it was 92%.

On to `COc1cc(OC)c(Cl)c(-n2c(-c3ccc(F)cc3Cl)c(C)c(=O)n(C)c2=O)c1` [Compound 37, 1-(2-chloro-3,5-dimethoxyphenyl)-6-(2-chloro-4-fluorophenyl)-3,5-dimethyl-2,4(1H,3H)-pyrimidinedione], for which the pest or weed control at 50 ppm worked out at 95% in assay [1]; 77% in assay [2]; 100% in assay [3]; 53% in assay [4]; 100% in assay [5]; 98% in assay [6].
